pIC50: −log10 of the molar value.
Experiments:
Estrogen receptor beta [1] = molecular target: T1, Estrogen receptor beta (Homo sapiens, UniProt Q92731); assay: Displacement of [3H]estradiol from human recombinant ERbeta relative to estradiol
Homo sapiens = organism: Homo sapiens; assay: Selectivity for human ERalpha over human ERbeta
Estrogen receptor beta [2] = molecular target: T1, Estrogen receptor beta; assay: Displacement of [3H]estradiol from human recombinant ERbeta
Estrogen receptor = molecular target: T2, Estrogen receptor (Homo sapiens, UniProt P03372)
T2 sequence (P03372 whole entry): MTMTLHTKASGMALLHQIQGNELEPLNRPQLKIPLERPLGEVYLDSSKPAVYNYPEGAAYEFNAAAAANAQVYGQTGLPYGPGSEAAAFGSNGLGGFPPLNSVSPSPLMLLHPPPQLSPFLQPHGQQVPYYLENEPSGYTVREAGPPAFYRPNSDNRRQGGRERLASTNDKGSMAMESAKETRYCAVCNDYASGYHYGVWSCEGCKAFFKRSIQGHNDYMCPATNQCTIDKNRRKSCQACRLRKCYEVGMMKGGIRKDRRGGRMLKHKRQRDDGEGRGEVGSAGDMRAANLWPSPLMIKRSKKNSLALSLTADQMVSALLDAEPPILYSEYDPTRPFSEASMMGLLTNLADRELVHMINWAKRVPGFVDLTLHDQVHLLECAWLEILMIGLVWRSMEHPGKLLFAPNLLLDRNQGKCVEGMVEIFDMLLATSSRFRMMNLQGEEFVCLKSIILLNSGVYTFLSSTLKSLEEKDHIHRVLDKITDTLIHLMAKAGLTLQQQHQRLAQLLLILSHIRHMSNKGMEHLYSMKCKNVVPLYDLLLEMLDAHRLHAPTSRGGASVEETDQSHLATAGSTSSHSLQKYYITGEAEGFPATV
Description: Displacement of [3H]estradiol from human recombinant ERalpha

T1 sequence (Q92731 whole entry): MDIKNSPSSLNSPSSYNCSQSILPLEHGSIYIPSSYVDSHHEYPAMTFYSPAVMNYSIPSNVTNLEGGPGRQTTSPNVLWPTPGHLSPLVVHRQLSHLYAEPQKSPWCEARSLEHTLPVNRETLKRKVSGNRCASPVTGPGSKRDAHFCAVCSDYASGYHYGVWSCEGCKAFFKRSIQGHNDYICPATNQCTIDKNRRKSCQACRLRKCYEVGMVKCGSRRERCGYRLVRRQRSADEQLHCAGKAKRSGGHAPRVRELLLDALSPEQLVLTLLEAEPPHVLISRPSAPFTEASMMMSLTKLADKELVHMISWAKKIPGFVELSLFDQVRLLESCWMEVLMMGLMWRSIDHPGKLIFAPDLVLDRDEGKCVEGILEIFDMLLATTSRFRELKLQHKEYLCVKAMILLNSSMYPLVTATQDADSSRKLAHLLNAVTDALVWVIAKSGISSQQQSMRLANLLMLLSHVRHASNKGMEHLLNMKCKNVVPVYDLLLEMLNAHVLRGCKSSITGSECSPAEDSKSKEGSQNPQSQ

relative binding affinity (RBA) (Estrogen receptor beta [1]) | Ratio (Homo sapiens) | pIC50 (Estrogen receptor beta [2]) | pIC50 (Estrogen receptor) | Structure (SMILES)
0.25 |  |  |  | COc1ccc(-c2sc3cc(O)ccc3c2Oc2ccc(OCCN3CCCCC3)cc2)cc1
1.77 |  | 8.02 |  | Oc1ccc(-c2sc3cc(O)ccc3c2Oc2ccc(OCCN3CCCCC3)cc2)cc1
0.007 | 4.3 | 5.63 | 6.18 | O=C(CCl)Nc1ccc(-c2sc3cc(O)ccc3c2Oc2ccc(OCCN3CCCCC3)cc2)cc1
1 | 1.7 | 7.79 | 7.96 | Oc1ccc2c(Oc3ccc(OCCN4CCCCC4)cc3)c(-c3ccccc3)sc2c1
0.25 | 2.8 | 7.18 | 7.57 | Oc1ccc2c(Oc3ccc(OCCN4CCCCC4)cc3)c(-c3ccc(Br)cc3)sc2c1
0.68 | 1.6 | 7.55 | 7.76 | Oc1ccc2c(Oc3ccc(OCCN4CCCCC4)cc3)c(-c3ccc(F)cc3)sc2c1
0.009 | 79 | 5.74 | 7.57 | CS(=O)(=O)c1ccc(-c2sc3cc(O)ccc3c2Oc2ccc(OCCN3CCCCC3)cc2)cc1

Structure (SMILES) | relative binding affinity (RBA) (Estrogen receptor beta [1]) | Ratio (Homo sapiens) | pIC50 (Estrogen receptor beta [2]) | pIC50 (Estrogen receptor)
Oc1ccc2c(Oc3ccc(OCCN4CCCCC4)cc3)c(-c3ccc(NCCCl)cc3)sc2c1 | < 0.01 | > 50 | < 5.80 | 7.45
Nc1ccc(-c2sc3cc(O)ccc3c2Oc2ccc(OCCN3CCCCC3)cc2)cc1 | 0.34 | 2.8 | 7.31 | 7.71
